Experimental data taken from US20100068150A1, “Selective Caspase Inhibitors” (The Board of Trustees of the Leland Stanford Junior …, priority 2006, published 2010).
“Also recorded” adds a separate entry of the source.

Columns and labels:
[1] = tested on: mature downstream caspases (17-22 kDa) in 293 extracts; assay: Intrinsic apoptosis assay in 293 extracts with AB06, KMB01 labeling of mature downstream caspases; assay type: biochemical; settings: AB06 added at the same time as cytochrome c/dATP
Text: FIGS. 6 A-E illustrate that full-length active caspase-7 has unique inhibitor specificity and is processed to mature forms by downstream executioner caspases. (A) The caspase-3 specific inhibitor causes accumulation of a catalytically active full-length form of caspase-7. Cytosolic extracts from 293 cells were activated with cytochrome c/dATP for the indicated times followed by labeling with KMB01 (left panel) and western blotting with a caspase-7 specific antibody (right panel) as in FIG. 5A. […] (B) The exact same experiment as (A) except extracts from MCF-7 cells were used in place of 293 extracts. (**) indicates forms of caspase-7 that are likely a result of the alternative transcription start site at methionine-45 (C) Quantification of the relative activity of FL-C7 in uninhibited 293 extracts (from FIG. 5A), AB06 treated 293 extracts (from (A)) and uninhibited MCF-7 extracts (from (B)) (D) Inhibitor specificity of full-length and processed forms of caspase-7. Extracts (293) were activated for 5 min with cytochrome c/dATP and then incubated with NP-capped AOMK inhibitors containing the indicated primary amino acid sequences for 5 minutes before KMB01 was added and allowed to label residual caspase active sites for 30 minutes. Samples were analyzed by SDS-PAGE followed by biotin blotting using strepavidin-HRP (left panel) or western blotting for caspase-7 (right panel). […]

[2] = tested on: endogenous caspases in 293 cytosolic extracts; assay: Direct labeling of endogenous caspases in apoptotic 293 cytosolic extracts; assay type: binding; settings: 10 min after cytochrome c/dATP; bAB06 and bAB13 at 10 nM to 10 μM
Experimental: (a.) Hypotonic 293 cytosolic extracts were induced to undergo intrinsic apoptosis by addition of cytochrome c/dATP. KMB01, bAB06 and bAB13 were added 10 minutes after activation and labeling of caspase active sites was carried out for three minutes. Samples were analyzed by SDS-PAGE followed by biotin blotting using streptavidin-HRP. (b) The identity of individual caspases was confirmed via immunoprecipitation using specific anti-sera for caspases-3, 7 and 9 (also see FIG. 5B for immunoprecipitation of caspases-3 and 7 after KMB01 labeling). Extracts (293) were activated with cytochrome c/dATP for 10 minutes, labeled by addition of indicated probes (100 nM final concentration for bAB06 and bAB13 and 10 μM final concentration for KMB01) and labeled caspases precipitated using specific anti-sera as described in the Methods section. […] Labeling of caspases was monitored by SDS-PAGE followed by biotin blotting with streptavidin-HRP. […]
Selective labeling of endogenous caspases in cell extracts and live cells with active site probes was carried out as follows: Hypotonic 293 cytosolic extracts were induced to undergo intrinsic apoptosis by addition of cytochrome c/dATP. […] Samples were analyzed by SDS-PAGE followed by biotin blotting using streptavidin-HRP. […] Labeling of caspases was monitored by SDS-PAGE followed by biotin blotting with streptavidin-HRP. […]

[3] = tested on: endogenous caspases in intact Jurkat cells; assay: Direct labeling of endogenous caspase activity in live Jurkat cells; assay type: cell-based; settings: anti-Fas or etoposide 15 h, probe 2 h; KMB01, bAB19 10 μM; bAB06, bAB13 1 μM

| Compound | KMB01 labeling of mature downstream caspases [1] | labeling of endogenous caspases in activated 293 extracts [2] | labeling of endogenous caspases in intact cells [3] |
| --- | --- | --- | --- |
| Cc1cccc(C)c1C(=O)OCC(=O)[C@H](CC(=O)O)NC(=O)[C@@H](NC(=O)[C@H](Cc1ccncc1)NC(=O)[C@H](CC(=O)O)NC(=O)Cc1ccc(O)c([N+](=O)[O-])c1)C(C)C [AB06, Np-D-3-V-D-DMBA] | completely blocked |  |  |
| Bio-EVD-AOMK [KMB01, reference compound] |  | labeled a 35 kDa caspase-9 species and the two primary mature forms of caspase3 at 17 and 20 kDa as well the 33 kDa full length N-peptide processed and 20 kDa mature forms of caspase-7 | robust labeling of downstream caspases-3 and 7; also recorded: did not show labeling of caspase-9 |
